Source: patent publication US9096591B2, “Tetracyclic compounds” (Medivation Technologies, Inc., priority 2007, dated 2015)
Like-named read-outs stand apart in the source and are kept apart here.

Assays:
[1] = molecular target: T1, human recombinant adrenergic α2A receptor (Homo sapiens, UniProt P08913); experiment: Adrenergic α2A radioligand binding ([3H]MK-912); parameters: Inhibition of ligand binding, Adren. alpha2A: concentration or dose not given beside the values; conditions: percent inhibition of specific binding
T1 construct: expressed in transfected cells; host or cells: insect Sf9 cells
T1 sequence (P08913 1-465): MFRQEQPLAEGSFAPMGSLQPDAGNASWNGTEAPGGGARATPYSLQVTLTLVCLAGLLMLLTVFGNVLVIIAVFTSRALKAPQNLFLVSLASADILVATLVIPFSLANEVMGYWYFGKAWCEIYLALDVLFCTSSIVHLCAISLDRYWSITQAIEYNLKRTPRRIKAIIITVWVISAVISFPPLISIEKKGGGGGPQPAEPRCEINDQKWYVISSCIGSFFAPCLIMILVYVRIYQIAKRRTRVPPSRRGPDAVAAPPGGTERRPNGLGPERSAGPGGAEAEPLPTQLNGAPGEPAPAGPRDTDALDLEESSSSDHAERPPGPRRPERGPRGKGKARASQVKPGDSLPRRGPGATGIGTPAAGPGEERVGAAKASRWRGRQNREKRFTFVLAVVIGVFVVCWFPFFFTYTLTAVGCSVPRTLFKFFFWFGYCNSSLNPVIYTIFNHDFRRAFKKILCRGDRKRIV
Procedure: To evaluate in radioligand binding assays the activity of compounds of the invention, human recombinant adrenergic α2A receptor expressed in insect Sf9 cells (Uhlen S et al. J Pharmacol Exp Ther. 271:1558, 1994) in a modified Tris-HCl buffer (50 mM Tris-HCl, pH 7.4, 12.5 mM MgCl2, 2 mM EDTA) was used. Compounds of invention were incubated with 1 nM [^3H]MK-912 for 60 minutes at 25° C. MK912 is (2S-trans)-1,3,4,5′,6,6′,7,12b-octahydro-1′,3′-dimethyl-spiro[2H-benzofuro[2,3-a]quinolizine-2,4′(1′H)-pyrimidin]-2′(3′H)-one hydrochloride Non-specific binding was estimated in the presence of 10 μM WB-4101 (2-(2,6-Dimethoxyphenoxyethyl)aminomethyl-1,4-benzodioxane hydrochloride). Receptor proteins were filtered and washed, the filters were then counted to determine [^3H]MK-912 specifically bound. […] Biochemical assay results are presented as the percent inhibition of specific binding in Table 6.

[2] = molecular target: T2, human recombinant histamine H2 receptor (Homo sapiens, UniProt P25021); experiment: Histamine H2 radioligand binding ([125I]Aminopotentidine); conditions: for inhibition at 0.1 µM: 0.1 μM compound; for inhibition at 0.3 µM: 0.3 μM compound
T2 construct: expressed in transfected cells; host or cells: CHO-K1 cells
T2 sequence (P25021 whole entry): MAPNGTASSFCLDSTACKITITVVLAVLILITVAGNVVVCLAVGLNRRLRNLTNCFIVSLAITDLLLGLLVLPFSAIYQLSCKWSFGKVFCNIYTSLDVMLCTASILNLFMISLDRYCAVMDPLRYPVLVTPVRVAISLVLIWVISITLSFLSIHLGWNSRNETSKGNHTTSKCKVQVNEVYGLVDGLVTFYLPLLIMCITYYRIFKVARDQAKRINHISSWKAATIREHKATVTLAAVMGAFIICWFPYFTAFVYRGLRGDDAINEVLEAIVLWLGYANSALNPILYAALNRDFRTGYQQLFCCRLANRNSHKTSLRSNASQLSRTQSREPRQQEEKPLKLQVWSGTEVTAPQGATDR
Procedure: Non-specific binding was estimated in the presence of 3 μM Tiotidine. […] Biochemical assay results are presented as the percent inhibition of specific binding in Table 5.
Non-specific binding was estimated in the presence of 3 μM Tiotidine. […] Compounds were screened at 1 μM, using 1% DMSO as vehicle. Biochemical assay results are presented as the percent inhibition of specific binding in Table 6.

[3] = molecular target: T3, human recombinant histamine H1 receptor (Homo sapiens, UniProt P35367); experiment: Histamine H1 radioligand binding ([3H]Pyrilamine); conditions: for inhibition at 0.03 µM: 0.03 μM compound; for inhibition at 0.1 µM: 0.1 μM compound; for inhibition at 0.01 µM: 10 nM (0.01 μM) compound
T3 construct: expressed in transfected cells; host or cells: CHO cells
T3 sequence (P35367 whole entry): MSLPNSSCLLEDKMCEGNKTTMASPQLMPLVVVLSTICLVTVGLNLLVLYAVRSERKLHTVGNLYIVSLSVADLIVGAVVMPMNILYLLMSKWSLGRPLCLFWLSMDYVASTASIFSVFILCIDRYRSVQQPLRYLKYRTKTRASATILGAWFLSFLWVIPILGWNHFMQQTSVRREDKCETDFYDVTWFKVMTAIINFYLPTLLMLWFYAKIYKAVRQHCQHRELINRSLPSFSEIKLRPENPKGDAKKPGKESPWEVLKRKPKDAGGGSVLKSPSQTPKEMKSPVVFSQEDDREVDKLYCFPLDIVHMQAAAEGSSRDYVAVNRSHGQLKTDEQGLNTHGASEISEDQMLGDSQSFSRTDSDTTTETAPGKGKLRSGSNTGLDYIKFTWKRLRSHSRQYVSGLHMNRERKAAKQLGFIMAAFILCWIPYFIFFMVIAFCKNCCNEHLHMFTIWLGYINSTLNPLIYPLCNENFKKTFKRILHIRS
Procedure: To evaluate in radioligand binding assays the activity of compounds of the invention, human recombinant histamine H1 receptor expressed in Chinese hamster ovary (CHO) cells (De Backer M D et al. Biochem. Biophys. Res Comm. 197(3):1601, 1993) in a modified Tris-HCl buffer (50 mM Tris-HCl, pH 7.4, 2 mM MgCl2, 100 mM NaCl, 250 mM Sucrose) were used. […] Non-specific binding was estimated in the presence of 1 μM pyrilamine. Receptor proteins were filtered and washed, the filters were then counted to determine [^3H]pyrilamine specifically bound. […] Biochemical assay results are presented as the percent inhibition of specific binding in Table 5.
To evaluate in radioligand binding assays the activity of compounds of the invention, human recombinant histamine H1 receptor expressed in Chinese hamster ovary (CHO) cells (De Backer, M. D. et al., Biochem. Biophys. Res. Comm. 197(3):1601, 1993) in a modified Tris-HCl buffer (50 mM Tris-HCl, pH 7.4, 2 mM MgCl2, 100 mM NaCl, 250 mM Sucrose) was used. […] Non-specific binding was estimated in the presence of 1 μM pyrilamine. Receptor proteins were filtered and washed, the filters were then counted to determine [^3H]Pyrilamine specifically bound. Compounds were screened at 1 μM, using 1% DMSO as vehicle. Biochemical assay results are presented as the percent inhibition of specific binding in Table 6.

[4] = molecular target: T4, human recombinant serotonin (5-Hydroxytryptamine) 5-HT6 receptor (Homo sapiens, UniProt P50406); experiment: Serotonin 5-HT6 radioligand binding ([3H]LSD); parameters: Inhibition of ligand binding, Ser. 5-HT6: concentration or dose not given beside the values; conditions: percent inhibition of specific binding
T4 construct: expressed in transfected cells; host or cells: human HeLa cells
T4 sequence (P50406 whole entry): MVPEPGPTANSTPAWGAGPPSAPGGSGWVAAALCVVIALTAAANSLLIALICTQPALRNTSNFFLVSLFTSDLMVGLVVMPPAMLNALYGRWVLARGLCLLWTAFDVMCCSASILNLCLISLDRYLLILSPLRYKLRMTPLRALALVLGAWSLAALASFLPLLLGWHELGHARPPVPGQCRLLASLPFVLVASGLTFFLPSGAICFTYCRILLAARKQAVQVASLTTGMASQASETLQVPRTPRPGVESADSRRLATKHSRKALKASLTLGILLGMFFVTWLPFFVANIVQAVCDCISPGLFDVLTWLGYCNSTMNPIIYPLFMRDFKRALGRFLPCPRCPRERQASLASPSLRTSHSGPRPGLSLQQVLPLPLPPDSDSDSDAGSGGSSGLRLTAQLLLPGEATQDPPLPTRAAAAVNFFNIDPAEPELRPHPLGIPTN
Source text: Receptor proteins were filtered and washed, the filters were then counted to determine [3H]LSD specifically bound. […] Biochemical assay results are presented as the percent inhibition of specific binding in Table 6.

[5] = molecular target: T5, human recombinant adrenergic α2B receptor (Homo sapiens, UniProt P18089); experiment: Adrenergic α2B radioligand binding ([3H]Rauwolscine); parameters: Inhibition of ligand binding, Adren. alpha2B: concentration or dose not given beside the values; conditions: percent inhibition of specific binding
T5 construct: expressed in transfected cells; host or cells: CHO-K1 cells
T5 sequence (P18089 1-450): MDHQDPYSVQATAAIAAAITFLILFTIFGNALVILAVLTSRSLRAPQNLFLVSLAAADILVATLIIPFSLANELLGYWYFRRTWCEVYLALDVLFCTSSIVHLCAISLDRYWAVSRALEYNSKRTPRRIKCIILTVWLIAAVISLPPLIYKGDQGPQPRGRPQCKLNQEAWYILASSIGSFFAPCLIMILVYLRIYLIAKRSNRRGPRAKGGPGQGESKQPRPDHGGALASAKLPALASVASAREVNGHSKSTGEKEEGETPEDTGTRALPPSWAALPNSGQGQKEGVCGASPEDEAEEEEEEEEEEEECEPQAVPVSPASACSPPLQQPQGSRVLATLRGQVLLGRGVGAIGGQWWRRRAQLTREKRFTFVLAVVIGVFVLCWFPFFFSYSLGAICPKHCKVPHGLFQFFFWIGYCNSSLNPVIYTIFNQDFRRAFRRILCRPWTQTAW
Procedure: To evaluate in radioligand binding assays the activity of compounds of the invention, human recombinant adrenergic α2B receptor expressed in Chinese hamster ovary (CHO-K1) cells (Uhlen S et al. Eur J. Pharmacol. 343(1):93, 1998) in a modified Tris-HCl buffer (50 mM Tris-HCl, pH 7.4, 12.5 mM MgCl2, 1 mM EDTA, 0.2% BSA) was used. Compounds of the invention were incubated with 2.5 nM [^3H]Rauwolscine for 60 minutes at 25° C. Non-specific binding was estimated in the presence of 10 μM Prozosin. Receptor proteins were filtered and washed, the filters were then counted to determine [^3H]Rauwolscine specifically bound. […] Biochemical assay results are presented as the percent inhibition of specific binding in Table 6.

[6] = 0.1 nM [125I]Aminopotentidine, read-out: Histamine Binding H2, percent inhibition of specific binding
[7] = 1 μM compound, 0.1 nM [125I]Aminopotentidine, read-out: Histamine Binding H2, percent inhibition of specific binding
[8] = percent inhibition of specific binding, screened at 1 μM, read-out: Inhibition of ligand binding, Hist. H2
[9] = […] [3H]Pyrilamine, read-out: Histamine Binding H1, percent inhibition of specific binding
[10] = 1 μM compound, […] [3H]Pyrilamine, read-out: Histamine Binding H1, percent inhibition of specific binding
[11] = percent inhibition of specific binding, screened at 1 μM, read-out: Inhibition of ligand binding, Hist. H1

| inhibition at 0.004 µM ([3]; 4 nM compound, […] [3H]Pyrilamine, read-out: Histamine Binding H1, percent inhibition of specific binding) | inhibition at 0.02 µM ([3]; 0.02 μM compound, […] [3H]Pyrilamine, read-out: Histamine Binding H1, percent inhibition of specific binding) | Structure (SMILES) | Inhibition of ligand binding, Adren. alpha2A [1] | inhibition at 0.1 µM [2, 6] | inhibition at 0.3 µM [2, 6] | inhibition at 1 µM [2, 7] | inhibition at 1 µM [2, 8] | inhibition at 0.03 µM [3, 9] | inhibition at 0.1 µM [3, 9] | inhibition at 1 µM [3, 10] | inhibition at 1 µM [3, 11] | Inhibition of ligand binding, Ser. 5-HT6 [4] | Inhibition of ligand binding, Adren. alpha2B [5] | inhibition at 0.01 µM [3, 9] |
| --- | --- | --- | --- | --- | --- | --- | --- | --- | --- | --- | --- | --- | --- | --- |
|  |  | Cc1ccc(CCn2c3c(c4ccccc42)CN(C)CC3)cc1 [Compound 1, 2,3,4,5-tetrahydro-2-methyl-5-(4-methylphenethyl)-1H-pyrido[4,3-b]indole] | 99% | 33% | 57% | 82% | 82% | 32% | 56% | 91% | 91% | 87% |  |  |
|  |  | CCN1CCc2c(c3ccccc3n2CCc2ccc(C)cc2)C1 [Compound 3, 2-ethyl-2,3,4,5-tetrahydro-5-(4-methylphenethyl)-1H-pyrido[4,3-b]indole] | 86% |  |  | 51% | 51% |  |  | 88% | 88% | 40% | 102% |  |
|  |  | CCN1CCc2c(c3ccccc3n2CCc2ccccc2)C1 [Compound 4, 2-ethyl-2,3,4,5-tetrahydro-5-phenethyl-1H-pyrido[4,3-b]indole] | 82% |  | 34% | 51% | 51% | 47% | 73% | 93% | 93% | 82% | 106% |  |
|  |  | CCN1CCc2c(c3ccccc3n2CCc2ccncc2)C1 [Compound 5] | 20% |  |  | 2% | 2% |  |  | 82% | 82% | 1% | 78% |  |
|  |  | CCN1CCc2c(c3ccccc3n2CCc2ccccn2)C1 [Compound 6] | 20% |  |  | -3% | -3% |  |  | 32% | 32% | 7% | 54% |  |
|  |  | CN1CCc2c(c3ccccc3n2CCc2ccncc2)C1 [Compound 10, 2,3,4,5-tetrahydro-2-methyl-5-(2-(pyridin-4-yl)ethyl)-1H-pyrido[4,3-b]indole] | 33% |  |  | 12% | 12% |  |  | 88% | 88% | 32% | 92% |  |
| 34% | 73% | Cc1ccc2c(c1)c1c(n2CCc2ccccc2)CCN(C)C1 [Compound 20, 2,3,4,5-tetrahydro-2,8-dimethyl-5-phenethyl-1H-pyrido[4,3-b]indole] | 98% | 33% | 51% | 72% | 87% |  | 93% | 97% | 97% |  | 108% |  |
|  |  | Cc1ccc2c(c1)c1c(n2CCc2ccccn2)CCN(C)C1 [Compound 21, 2,3,4,5-tetrahydro-2,8-dimethyl-5-(2-(pyridin-2-yl)ethyl)-1H-pyrido[4,3-b]indole] |  |  |  | 45% | 45% |  |  | 79% | 79% | 79% | 114% |  |
|  |  | Cc1ccc2c(c1)c1c(n2CCc2ccncc2)CCN(C)C1 [Compound 22, 2,3,4,5-tetrahydro-2,8-dimethyl-5-(2-(pyridin-4-yl)ethyl)-1H-pyrido[4,3-b]indole] | 72% |  | 29% | 49% | 53% | 63% |  | 100% | 100% |  | 105% | 36% |
|  |  | Cc1ccc2c(c1)c1c(n2CCc2ccccc2F)CCN(C)C1 [Compound 34, 5-(2-fluorophenethyl)-2,3,4,5-tetrahydro-2,8-dimethyl-1H-pyrido[4,3-b]indole] | 99% |  |  | 89% | 89% |  | 67% | 96% | 96% | 104% |  | 22% |
